From ChEMBL document CHEMBL5316376, “Cyclopentathiophene Carboxamide Derivatives as PAFR Antagonists for Treating Ocular Diseases, Allergies, and Inflammation-Related Disorders” (ACS Med Chem Lett, 2023)

Target: Platelet-activating factor receptor (Homo sapiens, UniProt P25105)
Assay: Antagonist activity at human PAFR expressed in HEK293 cells assessed as inhibition of PAF C-16 ligand induced receptor activation preincubated for 90 mins followed by PAF ligand addition and measured after 60 mins by HTRF IP1 assay
Type: functional, cell-based

Chain of Platelet-activating factor receptor (P25105 whole entry): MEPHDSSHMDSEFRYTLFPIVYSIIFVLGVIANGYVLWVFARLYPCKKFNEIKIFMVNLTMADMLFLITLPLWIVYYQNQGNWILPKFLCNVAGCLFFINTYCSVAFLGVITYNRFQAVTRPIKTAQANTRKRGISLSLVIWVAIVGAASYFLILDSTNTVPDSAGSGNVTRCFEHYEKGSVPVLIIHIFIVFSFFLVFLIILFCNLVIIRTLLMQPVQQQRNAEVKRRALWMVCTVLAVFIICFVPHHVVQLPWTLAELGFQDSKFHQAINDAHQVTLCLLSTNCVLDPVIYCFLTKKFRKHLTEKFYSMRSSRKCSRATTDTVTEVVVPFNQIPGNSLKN

| SMILES | IC50 |
| --- | --- |
| Cc1nnc2n1-c1sc3c(c1[C@@H](c1ccccc1Cl)NC2)C[C@@H](C(=O)NC1CCC(F)(F)CC1)C3 | 1.3 nM |
| Cc1nnc2n1-c1sc3c(c1[C@@H](c1ccccc1Cl)NC2)C[C@@H](C(=O)NCc1ccc(C(F)(F)F)cc1)C3 | 0.4 nM |
| Cc1nnc2n1-c1sc3c(c1[C@@H](c1ccccc1Cl)NC2)C[C@@H](C(=O)NC1(c2ccc(Cl)cn2)CC1)C3 | 1.3 nM |
| Cc1nnc2n1-c1sc3c(c1[C@H](c1ccccc1Cl)NC2)C[C@@H](C(=O)NCc1ccccc1)C3 | 1.1 nM |
